# Laboratory results taken from patent US20230099106A1, “PRODRUGS USEFUL IN ADOPTIVE CELL THERAPY” (Memorial Sloan Kettering Cancer Center, priority 2020, published 2023).
# Like-named read-outs stand apart in the source and are kept apart here.
# Key:
# HCC827 (adenocarcinoma) = experiment: Cell-Titer Glo cytotoxicity assay, HCC827 cells; format: cell-based; conditions: for IC50: Homo sapiens, 48 hours of drug treatment, ≥ 6 drug dilutions (3-fold); for cytotoxicity (cell viability): HCC827, 48 hrs
# Procedure: FIG. 3 provides the results of HCC827 cells incubated for 48 hrs. with or without CPG2 in the presence of APdMG-Glu where cell viability was measured by Cell-Titre Glo, according to the working examples. The viability of the cells incubated with the active version of the drug (O-(3-aminopropyl)-des-morpholino-gefitinib) are shown for comparison.
# (§1) Prodrug/Drug IC50 and trans and cis-toxicity assays with secreted enzyme were performed using Cell-Titer Glo (Promega). Cells were analyzed in triplicate wells of a 96-well dish and equivalent volume of Cell-Titer Glo reagent was added to each well. Following a 10-minute incubation at room temperature samples were transferred to White 96-well Optiplate (Perkin Elmer) and luminescence was measured on a SpectraMax M2 plate reader (Molecular Devices). Data were analyzed with SoftMax Pro software.
# PC9 (adenocarcinoma) = experiment: Cell-Titer Glo cytotoxicity assay, PC9 cells; format: cell-based; conditions: for IC50: Homo sapiens, PC-9, 48 hours of drug treatment, ≥ 6 drug dilutions (3-fold)
# Procedure: as §1
# CPG2 [1] = molecular target: T1, CPG2 (Pseudomonas sp., UniProt P06621); experiment: Amplex Red glutamate release assay with recombinant CPG2; format: biochemical; conditions: incubated with recombinant CPG2, FIG. 2
# T1 construct: HA (C); His (C); host or cells: E. coli
# T1 sequence (P06621 23-415): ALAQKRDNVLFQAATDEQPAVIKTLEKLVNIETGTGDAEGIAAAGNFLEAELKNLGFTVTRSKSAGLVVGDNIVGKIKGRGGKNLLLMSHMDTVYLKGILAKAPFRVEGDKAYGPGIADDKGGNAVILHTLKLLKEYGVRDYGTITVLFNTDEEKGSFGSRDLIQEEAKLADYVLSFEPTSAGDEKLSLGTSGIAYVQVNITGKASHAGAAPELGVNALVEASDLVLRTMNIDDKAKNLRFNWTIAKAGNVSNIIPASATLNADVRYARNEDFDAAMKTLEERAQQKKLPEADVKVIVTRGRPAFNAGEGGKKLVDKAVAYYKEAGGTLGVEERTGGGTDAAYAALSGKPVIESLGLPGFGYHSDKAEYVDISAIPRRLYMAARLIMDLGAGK
# Procedure: FIG. 2 provides the results of incubating APdMG-Glu, an embodiment of a prodrug compound of the present technology, with increasing concentration of recombinant CPG2 where glutamate release was measured in an Amplex Red assay, according to the working examples.
# Recombinant CPG2 enzyme was incubated with prodrugs in CPG2 reaction buffer (1M TrisHCL, 2 mM ZnCl2) for 2 hr at 37° C. and the enzyme/prodrug mixture was combined 1:1 with Amplex Red™ Glutamate Oxidase Assay mixture (Thermo cat # A12221). Following 30 min at 37° C. fluorescent emission at 590 nm was measured on a SpectraMax M2 plate reader (Molecular Devices). Data were analyzed with SoftMax Pro software.
# CPG2 [2] = molecular target: T1, CPG2; format: biochemical; conditions: for Vmax: disappearance of substrate and/or appearance of product
# From the text: CPG2 proteins were produced and purified by GenScript. Constructs contain c-terminal HA and His epitope tags and were purified by nickel columns.
# [3] = substrate of CPG2, RapidFire-MS
structure (smiles),measurement,setting,value
"COc1cc2ncnc(Nc3ccc(F)c(Cl)c3)c2cc1OCCCN [APdMG, 6-(3-Aminopropoxy)-N-(3-chloro-4-fluorophenyl)-7-methoxyquinazolin-4-amine]",IC50,HCC827 (adenocarcinoma); HCC827,20 nM
same,IC50,PC9 (adenocarcinoma),210 nM
"COc1cc2ncnc(Nc3ccc(F)c(Cl)c3)c2cc1OCCCNC(=O)OCc1ccc(NC(=O)N[C@@H](CCC(=O)O)C(=O)O)cc1 [APdMG-Glu, ((4-((((3-((4-((3-chloro-4-fluorophenyl)amino)-7-methoxyquinazolin-6-yl)oxy)propyl)carbamoyl)oxy)methyl)phenyl)carbamoyl)-L-glutamic acid]",cleavage of the glutamate moiety (glutamate release),CPG2 [1],confirm cleavage of the glutamate moiety
same,Km,CPG2 [2]; [3],2.25 µM
same,kcat,CPG2 [2]; [3],0.137 s⁻¹
same,Vmax,CPG2 [2]; [3],0.10 µM/s
same,cytotoxicity (cell viability),"HCC827 (adenocarcinoma); plus recombinant CPG2, FIG. 3",cytotoxicity comparable to that of the parent drug gefitinib
same,cytotoxicity (cell viability),"HCC827 (adenocarcinoma); prodrug alone without CPG2, FIG. 3",not APdMG-Glu alone
same,Selective index,"HCC827 (adenocarcinoma); HCC827, prodrug vs active drug",5.5
same,IC50,HCC827 (adenocarcinoma); HCC827,110 nM
same,IC50,PC9 (adenocarcinoma),240 nM
same,Selective index,PC9 (adenocarcinoma); prodrug vs active drug,6
"CN(Cc1cnc2nc(N)nc(N)c2n1)c1ccc(C(=O)N[C@@H](CCC(=O)O)C(=O)O)cc1 [methotrexate, reference compound]",Km,CPG2 [2],9.45 µM
same,kcat,CPG2 [2]; [3],10.36 s⁻¹
same,Vmax,CPG2 [2]; [3],0.39 µM/s
